From ChEMBL document CHEMBL1201862, “PubChem BioAssay data set” (2004)
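Exposure lasted 48 hours, with cells grown in 96-well plates and compounds tested at five concentrations. GI50: concentration for 50% inhibition of growth.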 Activity calls are given as the source filed them. Cut-off read from the data, not from the text of the source: active = GI50 up to about 1.1 µM and inactive = higher.

Tests used:
Experiment in all cases: DTP human tumour cell line panel, 48 h
LXFL 529 = system: LXFL 529
RXF 631 = system: RXF 631
DMS-273 = system: DMS-273
M19-MEL = system: M19-MEL
HOP-18 = system: HOP-18
XF498 = system: XF498
DMS-114 = system: DMS-114
SNB-78 = system: SNB-78
MDA-MB-231 = system: MDA-MB-231

Measured: GI50

N#Cc1ccc(Sc2ccccc2)cc1C#N
inactive: LXFL 529 59.7 µM | RXF 631 30.9 µM | DMS-273 19.1 µM | M19-MEL > 100 µM | HOP-18 50.6 µM | XF498 23.1 µM

COc1cc(=O)oc(/C=C/CO)c1C
inactive: LXFL 529 > 100 µM | RXF 631 > 100 µM | DMS-273 > 100 µM | M19-MEL > 100 µM | HOP-18 > 100 µM | DMS-114 > 100 µM | XF498 > 100 µM

CCOC(=O)C/C(N)=C(\C#N)C(=O)OCC
inactive: LXFL 529 > 100 µM | RXF 631 > 100 µM | DMS-273 > 100 µM | M19-MEL > 100 µM | HOP-18 > 100 µM | DMS-114 > 100 µM | SNB-78 > 100 µM | XF498 > 100 µM

O=C(c1ccccc1)[C@H]1Nc2ccc(Cl)cc2C2c3ccccc3CC21 (stereo partly specified)
inactive: LXFL 529 27.8 µM | RXF 631 27.8 µM | DMS-273 66.8 µM | M19-MEL 71.4 µM | DMS-114 69.3 µM | SNB-78 > 100 µM | XF498 21.5 µM

O=C1OC(CC(=O)c2ccc(Cl)cc2Cl)C(Cl)=C1Cl (stereo unspecified)
inactive: LXFL 529 17.1 µM | RXF 631 31.1 µM | DMS-273 39 µM | M19-MEL 20 µM | HOP-18 > 100 µM | DMS-114 18.4 µM | SNB-78 33.1 µM | XF498 21.3 µM

CC1=C(C(=O)CC(=O)C(=O)Nc2cc(C)ccc2C)Sc2ccccc2N1
inactive: LXFL 529 > 100 µM | RXF 631 > 100 µM | M19-MEL > 100 µM | HOP-18 > 100 µM | DMS-114 > 100 µM | SNB-78 > 100 µM | XF498 > 100 µM

COc1ccc2nc3cc(Cl)ccc3c(Sc3ccccc3[N+](=O)[O-])c2c1
inactive: LXFL 529 > 100 µM | RXF 631 43.9 µM | DMS-273 > 100 µM | M19-MEL > 100 µM | HOP-18 > 100 µM | DMS-114 > 100 µM | SNB-78 41.2 µM | XF498 29.4 µM

C[C@]12C=CC(=O)C=C1CC[C@@H]1[C@@H]2CC[C@]2(C)OC(=O)CC[C@@H]12 [TESTOLACTONE]
inactive: LXFL 529 > 500 µM | RXF 631 > 472 µM | DMS-273 > 490 µM | HOP-18 98.4 µM | DMS-114 376 µM | SNB-78 460 µM | MDA-MB-231 327 µM | XF498 245 µM

CN1C/C(=C\C=C\c2ccccc2)C(=O)/C(=C/C=C/c2ccccc2)C1
inactive: LXFL 529 78.7 µM | RXF 631 > 100 µM | DMS-273 > 100 µM | M19-MEL > 100 µM | DMS-114 > 100 µM | SNB-78 > 100 µM | XF498 > 100 µM
